# Data: patent US9273055B2, “Tyrosine kinase inhibitors” (Chembridge Corporation, priority 2008, dated 2016)
# Where “and” joins values, the source holds several entries; their conditions need not be identical. Identical values can stand only once. Like-named read-outs stand apart in the source and are kept apart here.
# Assays:
# EML4-ALK C1156Y = EML4-ALK C1156Y (Homo sapiens, UniProt Q9UM73, C1156Y); experiment: BaF3 stable clone growth (WST-1), EML4-ALK C1156Y; settings: BaF3 stables
# NPM-ALK C1156Y = NPM-ALK C1156Y (Homo sapiens, UniProt Q9UM73, C1156Y); experiment: BaF3 stable clone growth (WST-1), NPM-ALK C1156Y; settings: BaF3 stables
# Chain of NPM-ALK C1156Y (Q9UM73 1060-1620 C1156Y limits assumed): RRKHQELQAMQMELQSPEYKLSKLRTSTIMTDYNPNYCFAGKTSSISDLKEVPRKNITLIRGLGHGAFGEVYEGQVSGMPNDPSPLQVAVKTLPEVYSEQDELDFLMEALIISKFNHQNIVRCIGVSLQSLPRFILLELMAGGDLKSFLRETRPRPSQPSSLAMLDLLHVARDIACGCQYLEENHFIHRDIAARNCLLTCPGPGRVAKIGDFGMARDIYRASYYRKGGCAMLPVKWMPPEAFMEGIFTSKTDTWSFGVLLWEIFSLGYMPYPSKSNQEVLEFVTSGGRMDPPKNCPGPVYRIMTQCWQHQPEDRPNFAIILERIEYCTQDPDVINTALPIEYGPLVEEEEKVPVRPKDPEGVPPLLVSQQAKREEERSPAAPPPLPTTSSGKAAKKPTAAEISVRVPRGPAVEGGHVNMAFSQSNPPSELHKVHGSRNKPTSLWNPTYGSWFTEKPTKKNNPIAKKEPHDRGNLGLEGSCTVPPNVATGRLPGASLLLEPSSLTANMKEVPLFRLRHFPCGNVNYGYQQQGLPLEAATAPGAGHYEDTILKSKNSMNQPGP
# FLT3-ITD = biological target: T1, FLT3-ITD (Homo sapiens, UniProt P36888, cells depend on it, form not given); experiment: BaF3 stable clone growth (WST-1), FLT3-ITD; settings: read-out: BaF3 Stables IC50 ± SEE, FLT3-ITD
# T1 sequence (P36888 with tags, fused parts or gaps INS600HVDFREYEYD): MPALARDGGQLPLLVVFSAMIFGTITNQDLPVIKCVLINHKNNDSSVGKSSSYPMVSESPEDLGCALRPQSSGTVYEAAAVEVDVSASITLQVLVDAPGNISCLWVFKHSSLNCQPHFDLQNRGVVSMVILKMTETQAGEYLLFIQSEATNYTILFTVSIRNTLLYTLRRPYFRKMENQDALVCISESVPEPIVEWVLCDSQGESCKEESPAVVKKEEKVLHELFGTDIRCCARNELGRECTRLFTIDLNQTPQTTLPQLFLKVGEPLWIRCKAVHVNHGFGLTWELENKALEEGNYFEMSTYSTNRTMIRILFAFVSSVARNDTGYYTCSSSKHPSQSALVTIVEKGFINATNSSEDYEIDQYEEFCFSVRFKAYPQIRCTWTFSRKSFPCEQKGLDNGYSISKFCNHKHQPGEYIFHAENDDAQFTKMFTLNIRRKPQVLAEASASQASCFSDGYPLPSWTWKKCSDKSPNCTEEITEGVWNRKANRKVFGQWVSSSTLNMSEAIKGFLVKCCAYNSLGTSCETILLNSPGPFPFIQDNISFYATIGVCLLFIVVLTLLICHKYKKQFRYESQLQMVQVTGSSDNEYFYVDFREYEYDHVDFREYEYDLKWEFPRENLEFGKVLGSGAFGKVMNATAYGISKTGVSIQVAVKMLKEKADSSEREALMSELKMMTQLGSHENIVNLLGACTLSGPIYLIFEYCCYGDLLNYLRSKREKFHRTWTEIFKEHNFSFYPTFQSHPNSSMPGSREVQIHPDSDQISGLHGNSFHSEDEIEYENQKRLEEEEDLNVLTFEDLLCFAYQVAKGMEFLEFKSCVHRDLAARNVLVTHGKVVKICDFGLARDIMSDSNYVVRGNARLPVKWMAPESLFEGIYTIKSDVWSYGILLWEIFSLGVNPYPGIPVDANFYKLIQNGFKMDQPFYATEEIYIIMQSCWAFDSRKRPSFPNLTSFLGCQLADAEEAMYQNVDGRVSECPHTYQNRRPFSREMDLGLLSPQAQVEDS
# NPM-ALK R1275Q = NPM-ALK R1275Q (Homo sapiens, UniProt Q9UM73, R1275Q); experiment: BaF3 stable clone growth (WST-1), NPM-ALK R1275Q; settings: read-out: BaF3 Stables IC50 ± SEE, R1275Q; NPM-ALK construct
# Chain of NPM-ALK R1275Q (Q9UM73 1060-1620 R1275Q limits assumed): as the sequence (Q9UM73 1060-1620 C1156Y limits assumed) above, with Y97C, R216Q counted along it
# in vitro = settings: rat, pH 7.4
# [1] = Caco-2 cell permeation study; assay type: in vitro ADME; settings: human; for Papp A→B at 2 h, 10 μM / Papp B→A at 2 h, 10 μM: Caco-2, 10 μM; for Papp A→B at 2 h, 10 μM: apical pH 6.5, 2 h; for Papp B→A at 2 h, 10 μM: basolateral pH 7.4, 2 h
# NB-1 neuroblastoma cells = experiment: 3 day cell viability (WST-1), NB-1; assay type: cell-based; settings: 72 h, 3 days
# [2] = Phase I microsome metabolic stability, human; settings: pH 7.4
# [3] = Phase I microsome metabolic stability, rat; settings: pH 7.4
# EML4-ALK R1275Q = EML4-ALK R1275Q (Homo sapiens, UniProt Q9UM73, R1275Q); experiment: BaF3 stable clone growth (WST-1), EML4-ALK R1275Q; settings: read-out: BaF3 Stables IC50 ± SEE, R1275Q; EML4-ALK construct
# Chain of EML4-ALK R1275Q (Q9UM73 1060-1620 R1275Q limits assumed): as the sequence (Q9UM73 1060-1620 C1156Y limits assumed) above, with Y97C, R216Q counted along it
# [4] = biological target: hERG potassium channel current expressed in HEK293 cells (Homo sapiens, UniProt Q12809); experiment: hERG automatic patch clamp (PatchXpress 7000A)
# Chain of hERG potassium channel current expressed in HEK293 cells (Q12809 whole entry): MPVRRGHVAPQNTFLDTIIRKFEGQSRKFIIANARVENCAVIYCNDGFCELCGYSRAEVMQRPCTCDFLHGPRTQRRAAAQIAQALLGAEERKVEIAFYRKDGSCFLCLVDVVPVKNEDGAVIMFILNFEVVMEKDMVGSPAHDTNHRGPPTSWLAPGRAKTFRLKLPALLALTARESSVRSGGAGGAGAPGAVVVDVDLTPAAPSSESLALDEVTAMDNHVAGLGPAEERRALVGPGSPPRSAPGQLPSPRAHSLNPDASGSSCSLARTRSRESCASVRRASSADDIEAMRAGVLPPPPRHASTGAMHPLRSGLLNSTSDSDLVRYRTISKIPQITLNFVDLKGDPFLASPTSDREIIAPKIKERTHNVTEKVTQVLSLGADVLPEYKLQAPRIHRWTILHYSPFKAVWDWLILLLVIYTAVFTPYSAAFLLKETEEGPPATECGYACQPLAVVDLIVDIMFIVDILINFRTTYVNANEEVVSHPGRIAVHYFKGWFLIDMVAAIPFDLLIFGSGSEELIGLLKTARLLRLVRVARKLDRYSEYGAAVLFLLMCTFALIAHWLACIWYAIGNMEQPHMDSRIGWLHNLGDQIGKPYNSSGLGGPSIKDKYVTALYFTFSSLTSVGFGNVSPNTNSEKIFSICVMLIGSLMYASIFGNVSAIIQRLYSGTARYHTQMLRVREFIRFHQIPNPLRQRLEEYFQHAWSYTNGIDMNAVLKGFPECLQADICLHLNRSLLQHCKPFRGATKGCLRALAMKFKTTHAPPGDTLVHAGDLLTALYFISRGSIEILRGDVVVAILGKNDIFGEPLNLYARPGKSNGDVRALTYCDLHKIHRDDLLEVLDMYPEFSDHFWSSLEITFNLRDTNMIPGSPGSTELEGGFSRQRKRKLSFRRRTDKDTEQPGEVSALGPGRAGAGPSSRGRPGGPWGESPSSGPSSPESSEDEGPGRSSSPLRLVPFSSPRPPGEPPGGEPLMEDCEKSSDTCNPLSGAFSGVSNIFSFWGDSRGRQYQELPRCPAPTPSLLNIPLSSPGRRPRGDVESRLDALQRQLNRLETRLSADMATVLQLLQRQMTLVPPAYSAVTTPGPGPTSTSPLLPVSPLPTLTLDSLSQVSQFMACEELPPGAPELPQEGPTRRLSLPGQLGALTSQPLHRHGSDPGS
# TrkA = biological target: T2, TrkA (Homo sapiens, UniProt P04629); experiment: In vitro kinase activity assay (LANCE TR-FRET), TrkA; assay type: biochemical
# T2 construct: purchased Invitrogen
# T2 sequence (P04629 33-796): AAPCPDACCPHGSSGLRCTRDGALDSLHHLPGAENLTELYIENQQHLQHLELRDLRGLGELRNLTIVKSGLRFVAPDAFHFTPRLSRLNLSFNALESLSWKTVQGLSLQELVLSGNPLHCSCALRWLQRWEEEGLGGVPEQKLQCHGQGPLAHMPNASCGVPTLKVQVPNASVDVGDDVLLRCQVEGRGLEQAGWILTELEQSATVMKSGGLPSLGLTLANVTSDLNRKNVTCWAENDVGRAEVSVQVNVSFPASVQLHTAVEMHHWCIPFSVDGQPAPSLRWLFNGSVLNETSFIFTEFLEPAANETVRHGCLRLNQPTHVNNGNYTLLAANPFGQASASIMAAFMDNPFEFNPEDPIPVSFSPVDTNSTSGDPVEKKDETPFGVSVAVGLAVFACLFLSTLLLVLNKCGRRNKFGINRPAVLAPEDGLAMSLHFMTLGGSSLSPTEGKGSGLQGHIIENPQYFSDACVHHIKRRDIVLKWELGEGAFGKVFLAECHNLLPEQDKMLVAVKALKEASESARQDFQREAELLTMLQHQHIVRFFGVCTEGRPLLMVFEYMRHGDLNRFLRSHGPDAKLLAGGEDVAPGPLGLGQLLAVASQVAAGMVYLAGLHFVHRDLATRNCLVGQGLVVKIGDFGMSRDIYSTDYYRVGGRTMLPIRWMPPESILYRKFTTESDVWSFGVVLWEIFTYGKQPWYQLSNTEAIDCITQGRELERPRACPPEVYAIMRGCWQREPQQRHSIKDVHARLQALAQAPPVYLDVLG
# ALK = biological target: T3, ALK (Homo sapiens, UniProt Q9UM73); experiment: In vitro kinase activity assay (LANCE TR-FRET), ALK; assay type: biochemical
# T3 construct: purchased Invitrogen
# cMET = biological target: T4, cMET (Homo sapiens, UniProt P08581); experiment: In vitro kinase activity assay (LANCE TR-FRET), cMET; assay type: biochemical
# T4 construct: purchased Invitrogen
# T4 sequence (P08581 25-1390): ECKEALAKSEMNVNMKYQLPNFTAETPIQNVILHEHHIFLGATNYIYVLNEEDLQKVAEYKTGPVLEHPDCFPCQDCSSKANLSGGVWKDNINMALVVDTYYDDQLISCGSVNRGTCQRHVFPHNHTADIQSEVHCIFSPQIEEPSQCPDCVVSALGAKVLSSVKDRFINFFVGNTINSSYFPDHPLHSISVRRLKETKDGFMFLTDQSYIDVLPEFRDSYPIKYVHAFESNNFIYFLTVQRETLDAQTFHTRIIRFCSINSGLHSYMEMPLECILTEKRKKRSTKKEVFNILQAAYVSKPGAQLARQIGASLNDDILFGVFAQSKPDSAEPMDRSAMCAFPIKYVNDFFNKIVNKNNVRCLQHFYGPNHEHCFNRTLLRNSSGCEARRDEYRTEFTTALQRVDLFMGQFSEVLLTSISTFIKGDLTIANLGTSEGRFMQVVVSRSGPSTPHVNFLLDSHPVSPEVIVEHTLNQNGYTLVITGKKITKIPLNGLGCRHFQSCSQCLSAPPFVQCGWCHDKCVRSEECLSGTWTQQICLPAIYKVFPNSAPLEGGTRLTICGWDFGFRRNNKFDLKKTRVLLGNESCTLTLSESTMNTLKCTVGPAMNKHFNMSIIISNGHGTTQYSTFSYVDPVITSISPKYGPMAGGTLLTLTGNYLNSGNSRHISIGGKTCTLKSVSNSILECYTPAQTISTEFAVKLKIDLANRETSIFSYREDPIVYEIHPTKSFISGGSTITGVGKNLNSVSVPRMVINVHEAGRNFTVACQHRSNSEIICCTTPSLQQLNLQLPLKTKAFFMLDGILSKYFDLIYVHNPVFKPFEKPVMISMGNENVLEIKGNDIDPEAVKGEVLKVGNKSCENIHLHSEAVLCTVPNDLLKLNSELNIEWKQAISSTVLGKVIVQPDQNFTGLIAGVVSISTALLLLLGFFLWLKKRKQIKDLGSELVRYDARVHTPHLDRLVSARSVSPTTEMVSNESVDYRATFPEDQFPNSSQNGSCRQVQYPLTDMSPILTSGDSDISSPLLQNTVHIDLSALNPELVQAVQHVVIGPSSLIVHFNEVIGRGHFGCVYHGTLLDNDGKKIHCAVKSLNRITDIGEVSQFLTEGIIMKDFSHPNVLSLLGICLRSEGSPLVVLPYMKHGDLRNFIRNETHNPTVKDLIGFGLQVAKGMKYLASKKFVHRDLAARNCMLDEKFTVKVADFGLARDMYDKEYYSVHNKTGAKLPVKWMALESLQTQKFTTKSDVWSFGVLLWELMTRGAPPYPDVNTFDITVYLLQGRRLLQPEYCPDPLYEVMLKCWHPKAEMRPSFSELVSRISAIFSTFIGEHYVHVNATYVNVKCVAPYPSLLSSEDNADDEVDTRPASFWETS
# K299 lymphoma cells = experiment: 3 day cell viability (WST-1), K299; assay type: cell-based; settings: Homo sapiens, 72 h, 3 days
# Caco-2 monolayers = experiment: Caco-2 cell permeation study; assay type: in vitro ADME; settings: for Papp A to B: apical pH 6.5, 2 h
# [5] = Phase I microsome metabolic stability, mouse; assay type: in vitro ADME; settings: 1.0 mg/ml microsomes
# [6] = Rat pharmacokinetics / bioavailability; assay type: in vivo; settings: for AUC(0-t): male, Sprague-Dawley, plasma, read-out: AUC0-1440 (converted)
# U937 lymphoma cells = experiment: 3 day cell viability (WST-1), U937; assay type: cell-based; settings: 3 days
# Mouse pharmacokinetics = assay type: in vivo; settings: 10 mg/kg SC
# [7] = Guinea pig pharmacokinetics; assay type: in vivo; settings: 10 mg/kg PO
# Dog pharmacokinetics = assay type: in vivo, beagle dog; settings: 5 mg/kg PO
# [8] = positive control run with the compound of that line, 10 μM
# Chain of EML4-ALK C1156Y (Q9UM73 1060-1620 C1156Y limits assumed): as the sequence (Q9UM73 1060-1620 C1156Y limits assumed) above
molecule,measurement,setting,value
"2-(4-(1-(5-Fluoro-2-methylphenyl)propan-2-ylamino)-2-oxo-1,2-dihydropyridin-3-yl)-6-(2-(dimethylamino)ethyl)-6,7-dihydroimidazo[4,5-f]isoindole-5(1H)-one [Compound 45]","reduced potency, C1156Y compared to EML4-ALK parent construct",EML4-ALK C1156Y,1.3 fold
same,"reduced potency, C1156Y compared to NPM-ALK parent construct",NPM-ALK C1156Y,1.6 fold
same,GI50,FLT3-ITD,> 1000 nM
same,IC50,NPM-ALK R1275Q,81 ± 4.2 nM
"C[C@@H](Cc1cc(F)ccc1F)Nc1cc[nH]c(=O)c1-c1nc2cc3c(cc2[nH]1)C(=O)N(C)C3=O (stereo in doubt) [Compound 32, 2-(4-(1-(2,5-Difluorophenyl)propan-2-ylamino)-2-oxo-1,2-dihydropyridin-3-yl)-6-methylimidazo[4,5-f]isoindole-5,7(1H,6H)-dione]",microsomal CLint at 0.5 μM,in vitro,< 5 µL/min/mg
same,"Papp A→B at 2 h, 10 μM",[1],> 0.2 ×10⁻⁶ cm/s
"C[C@@H](Cc1c(F)c(F)cc(F)c1F)Nc1cc[nH]c(=O)c1-c1nc2cc3c(cc2[nH]1)CN(C1CCN(C)CC1)C3=O [Compound 4, (S)-6-(1-Methylpiperidin-4-yl)-2-(2-oxo-4-(1-(2,3,5,6-tetrafluorophenyl)propan-2-ylamino)-1,2-dihydropyridin-3-yl)-6,7-dihydroimidazo[4,5-f]isoindol-5(3H)-one]",IC50,NB-1 neuroblastoma cells,257 nM
same,"reduced potency, C1156Y compared to EML4-ALK parent construct",EML4-ALK C1156Y,2.0 fold
same,half-life at 0.5 μM,[2],> 2 h
same,microsomal CLint at 0.5 μM,[2],< 5.8 µL/min/mg
same,half-life at 0.5 μM,[3],> 2 h
same,microsomal CLint at 0.5 μM,[3],< 5.8 µL/min/mg
same,"Papp A→B at 2 h, 10 μM",[1],< 0.2 ×10⁻⁶ cm/s
same,"Papp B→A at 2 h, 10 μM",[1],20 ×10⁻⁶ cm/s
same,IC50,EML4-ALK R1275Q,2885 ± 20 nM
same,IC50,[4],2720 nM
"C[C@@H](Cc1c(F)c(F)cc(F)c1F)Nc1cc[nH]c(=O)c1-c1nc2cc3c(cc2[nH]1)C(=O)N(c1cccnc1)C3O (stereo partly drawn) [Compound 13, 7-Hydroxy-2-(2-oxo-4-(((S)-1-(2,3,5,6-tetrafluorophenyl)propan-2-yl)amino)-1,2-dihydropyridin-3-yl)-6-(pyridin-3-yl)-6,7-dihydroimidazo[4,5-f]isoindol-5(1H)-one]",IC50,TrkA,6.36 nM
same,IC50,ALK,15.2 nM
"C[C@@H](Cc1c(F)c(F)cc(F)c1F)Nc1cc[nH]c(=O)c1-c1nc2cc3c(cc2[nH]1)C(=O)N(c1ccc(F)nc1)C3=O [Compound 15, (S)-6-(6-Fluoropyridin-3-yl)-2-(2-oxo-4-((1-(2,3,5,6-tetrafluorophenyl)propan-2-yl)amino)-1,2-dihydropyridin-3-yl)imidazo[4,5-f]isoindole-5,7(1H,6H)-dione]",IC50,cMET,> 10000 nM
same,IC50,K299 lymphoma cells,> 10000 nM
same,"Papp A→B at 2 h, 10 μM",[1],< 0.2 ×10⁻⁶ cm/s
same,"Papp B→A at 2 h, 10 μM",[1],< 0.2 ×10⁻⁶ cm/s
"CC(Cc1cc(F)ccc1F)Nc1cc[nH]c(=O)c1-c1nc2cc3c(cc2[nH]1)CN(C)C3=O (centres unmarked) [Compound 33, 2-(4-(1-(2,5-Difluorophenyl)propan-2-ylamino)-2-oxo-1,2-dihydropyridin-3-yl)-6-methyl-6,7-dihydroimidazo[4,5-f]isoindol-5(1H)-one]",Papp A to B,"Caco-2 monolayers; Caco-2, 10 μM",1.7 10−6 cm/sec
same,Papp B to A,"Caco-2 monolayers; Caco-2, 10 μM, basolateral pH 7.4, 2 h",1.4 10−6 cm/sec
same,Efflux Ratio,"Caco-2 monolayers; Caco-2, B to A / A to B",0.5
same,Mouse LM-P1 Half-life,"[5]; Phase I only, 0.5 μM",0.901 h
same,half-life at 0.5 μM,"[5]; mouse, liver microsomes, pH 7.4, Phase I only, read-out: Mouse LM-P1 Half-life",0.214 h
"CC(Cc1cc(F)ccc1F)Nc1cc[nH]c(=O)c1-c1nc2cc3c(cc2[nH]1)C(=O)N(CC(O)CO)C3=O [Compound 34, 2-(4-(1-(2,5-Difluorophenyl)propan-2-ylamino)-2-oxo-1,2-dihydropyridin-3-yl)-6-(R)-2,3-dihydroxypropyl)imidazo[4,5-f]isoindole-5,7(1H,6H)-dione]",Papp A to B,"Caco-2 monolayers; Caco-2, 10 μM",>0.2 10−6 cm/sec
same,"Papp A→B at 2 h, 10 μM",[1],< 0.2 ×10⁻⁶ cm/s
CC(Cc1cc(F)ccc1F)Nc1cc[nH]c(=O)c1-c1nc2cc3c(cc2[nH]1)CNC3=O (centres unmarked) [Compound 53],F,[6]; 10 mg/kg P.O.,0.402%
same,AUC(0-t),"[6]; iv, 10 mg/kg I.V.",8850 ng·h/mL
same,AUC(0-t),"[6]; po, 10 mg/kg P.O.",35.5 ng·h/mL
same,half-life at 0.5 μM,in vitro,8.88 min
"CC(C)NCC(O)COc1cccc2ccccc12 (centres unmarked) [Propranolol, reference compound]",Pos Ctrl (Papp): Propranolol Papp,Caco-2 monolayers; [8],13.7 and 14.3 and 11.8
same,Pos Ctrl: Propranolol Recovery,Caco-2 monolayers; [8],63% and 26%
same,"recovery at 2 h, 10 μM","[1]; Caco-2, Pos Ctrl: Propranolol Recovery, positive control run with the compound of that line, 10 μM",44%
same,"Papp at 2 h, 10 μM","[1]; Caco-2, positive control run with the compound of that line, 10 μM",14 ×10⁻⁶ cm/s
"(S)-6-(2-(Dimethylamino)ethyl)-2-(2-oxo-4-((1-(2,3,5,6-tetrafluorophenyl)propan-2-yl)amino)-1,2-dihydropyridin-3-yl)-6,7-dihydroimidazo[4,5-f]isoindol-5(3H)-one [Compound 1]",AUC0-1440,[6]; 10 mg/kg I.V.,329 µg·min/mL
same,CL,[6]; 10 mg/kg I.V.,25.5 mL/min/kg
same,MRT,[6]; 10 mg/kg I.V.,22.7 h
same,T1/2,[6]; 10 mg/kg I.V.,22.05 h
same,Vss,[6]; 10 mg/kg I.V.,23.9 L/kg
same,AUC0-1440,[6]; 10 mg/kg P.O.,0.943 µg·min/mL
same,Cmax,[6]; 10 mg/kg P.O.,2.21 ng/mL
same,F,[6]; 10 mg/kg P.O.,0.287%
same,Tmax,[6]; 10 mg/kg P.O.,1.88 h
same,IC50,U937 lymphoma cells,1600 nM
same,F,Mouse pharmacokinetics,30%
same,F,[7],1%
same,GI50,FLT3-ITD,> 3000 nM
same,IC50,"[4]; read-out: hERG inhib. IC50, HEK293, hERG tail current",6250 nM
same,Compound 1 (parameter cell as printed),Dog pharmacokinetics,17.2 µg·min/mL
same,F,Dog pharmacokinetics,12%
